The values below come from US10426757B2, “Compositions and methods for promoting intestinal stem cell and/or non-stem progenitor cell function” (Whitehead Institute for Biomedical Research, priority 2014, dated 2019).

“Also recorded” adds a separate entry of the source.

The subject of this assay is control diet-derived organoids. Description: Ex vivo exposure of crypts and organoids to palmitic acid. It counts as cell-based, mouse. How it is done: To examine whether PA, like a HFD, augmented the numbers of ISCs per primary organoid, we assayed the self-renewal capacity of the primary organoids in secondary cultures and assessed how PA-treatment influenced the frequency of ISCs.
Isolated crypts were counted and embedded in Matrigel™ (Corning 356231 growth factor reduced) at 5-10 crypts per μl and cultured in a modified form of medium as described previously.^14 Briefly, Advanced DMEM (Gibco) was supplemented by EGF 40 ng ml^−1 (R&D), Noggin 200 ng ml^−1 (Peprotech), R-spondin […](R&D or Sino Biological), N-acetyl-L-cysteine 1 μM (Sigma-Aldrich), N2 1X (Life Technologies), B27 1X (Life Technologies), Chiron 10 μM (Stemgent), Y-27632 dihydrochloride monohydrate 20 ng ml^−1 (Sigma-Aldrich). 25 μL drops of Matrigel™ with crypts were plated onto a flat bottom 48-well plate (Corning 3548) and allowed to solidify for 20-30 minutes in a 37° C. incubator. Three hundred microliters of crypt culture medium was then overlaid onto the Matrigel™, changed every three days, and maintained at 37° C. in fully humidified chambers containing 5% CO2. Clonogenicity (colony-forming efficiency) was calculated by plating 50-300 crypts and assessing organoid formation 3-7 days or as specified after initiation of cultures.
Isolated ISCs or progenitor cells were centrifuged for 5 minutes at 250 g, re-suspended in the appropriate volume of crypt culture medium (500-1,000 cells μl^−1), then seeded onto 25-30 μl Matrigel™ (Corning 356231 growth factor reduced) containing 1 μM jagged (Ana-Spec) in a flat bottom 48-well plate (Corning 3548). Alternatively, ISCs and Paneth cells were mixed after sorting in a 1:1 ratio, centrifuged, and then seeded onto Matrigel™. The Matrigel™ and cells were allowed to solidify before adding 300 μl of crypt culture medium. The crypt media was changed every second or third day. Organoid bodies were quantified on days 3, 7 and 10 of culture, unless otherwise specified. With respect to the study results presented in FIGS. 14-16, organoid bodies were quantified on day 3-4. […]

With `CCCCCCCCCCCCCCCC(=O)O` [PA, palmitic acid], for the setting “30 μM PA”, the “primary organoid formation (clonogenic potential of crypts)” value was “did not change; also recorded: no effect”. For the same compound, the secondary organoid-forming activity result (30 μM PA, four weeks) is listed as “more than twofold increase; also recorded: more secondary organoid-forming activity”. In addition, for the setting “four-week PA treatment”, the “frequency of Lgr5-GFP^hi ISCs in organoids” value is “twofold increase; also recorded: increased the frequency”.
